Measured values reported in ChEMBL document CHEMBL1133035, “Cysteine chloromethyl and diazomethyl ketone derivatives with potent anti-leukemic activity” (Bioorg Med Chem Lett, 2000).
Where a SMILES comes first, the peptide text is derived from it. The star is where a group is joined. Farnesyl = CC(C)=CCC/C(C)=C/CC/C(C)=C/C*; Boc = CC(C)(C)OC(=O)*; CHN2 = [N-]=[N+]=C*; CH2Cl = ClC*

Experiments:
[1] = tested on: NALM-6; experiment: Anti-leukemic activity against Nalm-6 (B-lineage ALL) human acute lymphoblastic leukemia (ALL) cell line; format: functional, cell-based
[2] = tested on: MOLT-3; experiment: Anti-leukemic activity against Molt-3 (T-lineage ALL) human acute lymphoblastic leukemia (ALL) cell line; format: functional, cell-based

Row | IC50 [1] [µM] | IC50 [2] [µM] | SMILES
1 | > 100 | > 100 | CC(=O)N[C@@H](CSC/C=C(\C)CCC=C(C)C)C(=O)C=[N+]=[N-]
2 | 30.3 | 32.2 | CC(=O)N[C@@H](CSC/C=C(\C)CC/C=C(\C)CCC=C(C)C)C(=O)C=[N+]=[N-]
3 | 10.7 | 7.7 | CC(C)=CCC/C(C)=C/CC/C(C)=C/CSC[C@H](NC(=O)OC(C)(C)C)C(=O)CCl
4 | 15.4 | 22.9 | CCCCCCCCCCCCSC[C@H](NC(C)=O)C(=O)C=[N+]=[N-]
5 | 3 | 1.4 | CC(=O)N[C@@H](CSC/C=C(\C)CC/C=C(\C)CCC=C(C)C)C(=O)CCl
6 | 12.6 | 7.9 | CC(=O)N[C@@H](CSCC=C(C)C)C(=O)CCl
7 | > 100 | > 100 | CC(=O)N[C@@H](CSC/C=C(\C)CCC=C(C)C)C(=O)CCl
8 | 15.1 | 15.5 | CCCCCCCCCCCCSC[C@H](NC(=O)OC(C)(C)C)C(=O)CCl
9 | 40.7 | 35.5 | CC(C)=CCC/C(C)=C/CC/C(C)=C/CSCCC(=O)CCl
10 | 84.3 | > 100 | CC(C)=CCC/C(C)=C/CC/C(C)=C/CSCC(=O)CCl
11 | 49.8 | 50.1 | CC(C)=CCC/C(C)=C/CC/C(C)=C/CSC[C@H](NC(=O)OC(C)(C)C)C(=O)C=[N+]=[N-]
12 | > 100 | > 100 | CC(=O)N[C@@H](CSCC=C(C)C)C(=O)C=[N+]=[N-]
13 | 2 | 2.3 | CCCCCCCCCCCCSC[C@H](NC(C)=O)C(=O)CCl
14 | 17.7 | 12.5 | CCCCCCCCCCCCSC[C@H](N)C(=O)CCl
15 | 12.9 | 17.5 | CC(C)=CCC/C(C)=C/CC/C(C)=C/CSC[C@H](NC(=O)CNC(=O)OC(C)(C)C)C(=O)CCl (Boc-Gly-Cys(Farnesyl)-CH2Cl)
16 | 51.3 | 84.5 | CC(C)=CCC/C(C)=C/CC/C(C)=C/CSC[C@H](NC(=O)CNC(=O)OC(C)(C)C)C(=O)C=[N+]=[N-] (Boc-Gly-Cys(Farnesyl)-CHN2)
